One assay concerns the target PI3Kγ (Homo sapiens (Human), UniProt P48736). In words: In vitro enzyme assay (Kinase-Glo), selectivity, PI3Kγ. It is filed as biochemical. The settings on record: enzyme 2.29 μg/mL; ATP 10 μM; PIP2 60 μM; 2 hours. As to the method: The Kinase-Glo luminescent kinase assay kit (from Promega) was used to measure kinase activity. In this assay, amount of ATP remaining in solution following a kinase reaction is measured. […] The reaction mixture was incubated for 2 hours at room temperature. At the end of incubation period the equal volume of Kinase-Glo plus (Promega, V3772), was added per well and the luminescence was measured after incubating for 10 minutes at room temperature in dark. Results were calculated by measuring the luminescence units of test samples to blanks containing no enzyme.
The compounds of the present invention were tested for their selectivity for PI3Kδ over PI3Kα, PI3Kβ and PI3Kγ following the above assay using specific recombinant enzymes (Proteros, Germany) for each kinase. Assay condition of kinase assay (PI3Kα, PI3Kβ, PI3Kγ and PI3Kδ) was as follows.

Assay [1] deals with IFN-γ release in mouse splenocytes. Nature of the assay: Phytohaemagglutinin (PHA)-induced interferon (IFN)-gamma release in mouse splenocytes. Further details: species or system C57BL/6 mouse. To be noted: Splenocyte, PHA (10 μg/ml) for 48 hours, IFN-γ by ELISA, read-out: Cell Based IC50. The protocol: Effect of compounds on mitogen-induced IFN-γ release in mouse splenocytes was used to evaluate their potency in cell-based assay system [Blood (2010) 115: 2203-2213; Current Protocols in Immunology (2004) 3.12.1-3.12.20].
Mouse splenocytes were obtained from the spleen of a C57BL/6 mouse and plated at a density of 0.25 million cells/well in a 96 well tissue culture plate. The effect of the compounds to inhibit IFN-γ release was evaluated by treating the splenocytes with various concentrations of the test compounds followed by stimulation with PHA (10 μg/ml) for 48 hours. The IFN-γ release in the cell culture supernatant was quantified by ELISA as per the manufacturer's protocol (BD Biosciences, #555138).

The next assay concerns the target PI3Kβ (Homo sapiens (Human), UniProt P42338). Nature of the assay: In vitro enzyme assay (Kinase-Glo), selectivity, PI3Kβ. It is filed as biochemical. The settings on record: enzyme 2.29 μg/mL; ATP 10 μM; PIP2 60 μM; 2 hours. As to the method: (§1) The Kinase-Glo luminescent kinase assay kit (from Promega) was used to measure kinase activity. In this assay, amount of ATP remaining in solution following a kinase reaction is measured. The effect of compounds on PI3Kδ inhibition was carried out by adding 2.29 μg/ml of recombinant PI3K δ enzyme (Proteros, Germany) to reaction mixture containing assay buffer (50 mM HEPES, pH 7.4, 50 mM NaCl, 0.05% CHAPS) supplemented with 10 mM MgCl2, 5 mM DTT, 60 μM Phosphatidyl inositol bisphosphate (PIP2) and 10 μM ATP in the absence or presence of different concentrations of the compounds in a final volume of 15 μl/well, in a 384 well plate. The reaction mixture was incubated for 2 hours at room temperature. At the end of incubation period the equal volume of Kinase-Glo plus (Promega, V3772), was added per well and the luminescence was measured after incubating for 10 minutes at room temperature in dark. Results were calculated by measuring the luminescence units of test samples to blanks containing no enzyme.
(§2) The compounds of the present invention were tested for their selectivity for PI3Kδ over PI3Kα, PI3Kβ and PI3Kγ following the above assay using specific recombinant enzymes (Proteros, Germany) for each kinase. Assay condition of kinase assay (PI3Kα, PI3Kβ, PI3Kγ and PI3Kδ) was as follows. Enzyme: 2.29 μg/mL; ATP: 10 μM; PIP2 substrate: 60 μM and Reaction Time: 2 hours.
On the technique in general: Kinase-Glo measures the ATP left after a reaction by luminescence.

Assay [2] addresses recombinant PI3K δ enzyme (Homo sapiens (Human), UniProt O00329). Nature of the assay: In vitro enzyme assay (Kinase-Glo luminescent kinase assay), PI3Kδ. It counts as biochemical. A digest of the protocol:
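Each recombinant human PI3K isoform at 2.29 μg/mL with 60 μM PIP2 and 10 μM ATP in HEPES pH 7.4, NaCl, CHAPS, MgCl2, DTT, 2 hours at room temperature. Remaining ATP read by Kinase-Glo luminescence relative to no-enzyme blanks.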

For another assay, the target named is PI3Kα (Homo sapiens (Human), UniProt P42336). Nature of the assay: In vitro enzyme assay (Kinase-Glo), selectivity, PI3Kα. It is filed as biochemical. To be noted: enzyme 2.29 μg/mL; ATP 10 μM; PIP2 60 μM; 2 hours. As to the method: as §1, §2

A word on the IC50: it is the midpoint of a concentration-inhibition curve.

Like-named read-outs stand apart in the source and are kept apart here.

PI3Kγ, sequence (P48736 whole entry, species assumed): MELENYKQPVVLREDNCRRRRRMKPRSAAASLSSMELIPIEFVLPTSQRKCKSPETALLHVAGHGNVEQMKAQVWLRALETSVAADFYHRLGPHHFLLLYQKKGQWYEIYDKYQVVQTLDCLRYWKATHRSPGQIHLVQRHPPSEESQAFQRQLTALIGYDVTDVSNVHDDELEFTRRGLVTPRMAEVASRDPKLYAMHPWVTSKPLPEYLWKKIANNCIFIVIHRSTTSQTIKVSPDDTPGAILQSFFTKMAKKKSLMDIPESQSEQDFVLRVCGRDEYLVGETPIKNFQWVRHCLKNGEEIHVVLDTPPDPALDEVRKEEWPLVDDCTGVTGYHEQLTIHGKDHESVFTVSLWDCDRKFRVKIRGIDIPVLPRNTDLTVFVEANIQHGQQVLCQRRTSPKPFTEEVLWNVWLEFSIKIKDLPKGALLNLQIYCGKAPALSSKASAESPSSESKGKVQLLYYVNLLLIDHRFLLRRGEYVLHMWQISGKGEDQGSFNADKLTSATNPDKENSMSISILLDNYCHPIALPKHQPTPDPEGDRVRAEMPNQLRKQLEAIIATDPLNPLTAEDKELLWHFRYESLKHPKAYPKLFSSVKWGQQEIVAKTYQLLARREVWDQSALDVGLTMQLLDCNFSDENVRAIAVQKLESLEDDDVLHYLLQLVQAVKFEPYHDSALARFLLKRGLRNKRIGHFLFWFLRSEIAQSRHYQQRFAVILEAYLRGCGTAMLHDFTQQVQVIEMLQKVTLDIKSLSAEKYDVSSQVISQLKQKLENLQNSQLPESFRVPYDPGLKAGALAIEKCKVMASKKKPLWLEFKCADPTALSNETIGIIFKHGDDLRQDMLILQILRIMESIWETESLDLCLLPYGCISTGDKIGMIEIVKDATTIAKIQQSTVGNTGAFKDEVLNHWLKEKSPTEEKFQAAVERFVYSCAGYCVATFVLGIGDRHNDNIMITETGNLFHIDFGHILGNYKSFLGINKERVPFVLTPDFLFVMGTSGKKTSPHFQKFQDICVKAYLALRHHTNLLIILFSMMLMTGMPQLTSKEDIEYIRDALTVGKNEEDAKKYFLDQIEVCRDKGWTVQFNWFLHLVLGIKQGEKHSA
recombinant PI3K δ enzyme, sequence (O00329 whole entry, species assumed, canonical isoform): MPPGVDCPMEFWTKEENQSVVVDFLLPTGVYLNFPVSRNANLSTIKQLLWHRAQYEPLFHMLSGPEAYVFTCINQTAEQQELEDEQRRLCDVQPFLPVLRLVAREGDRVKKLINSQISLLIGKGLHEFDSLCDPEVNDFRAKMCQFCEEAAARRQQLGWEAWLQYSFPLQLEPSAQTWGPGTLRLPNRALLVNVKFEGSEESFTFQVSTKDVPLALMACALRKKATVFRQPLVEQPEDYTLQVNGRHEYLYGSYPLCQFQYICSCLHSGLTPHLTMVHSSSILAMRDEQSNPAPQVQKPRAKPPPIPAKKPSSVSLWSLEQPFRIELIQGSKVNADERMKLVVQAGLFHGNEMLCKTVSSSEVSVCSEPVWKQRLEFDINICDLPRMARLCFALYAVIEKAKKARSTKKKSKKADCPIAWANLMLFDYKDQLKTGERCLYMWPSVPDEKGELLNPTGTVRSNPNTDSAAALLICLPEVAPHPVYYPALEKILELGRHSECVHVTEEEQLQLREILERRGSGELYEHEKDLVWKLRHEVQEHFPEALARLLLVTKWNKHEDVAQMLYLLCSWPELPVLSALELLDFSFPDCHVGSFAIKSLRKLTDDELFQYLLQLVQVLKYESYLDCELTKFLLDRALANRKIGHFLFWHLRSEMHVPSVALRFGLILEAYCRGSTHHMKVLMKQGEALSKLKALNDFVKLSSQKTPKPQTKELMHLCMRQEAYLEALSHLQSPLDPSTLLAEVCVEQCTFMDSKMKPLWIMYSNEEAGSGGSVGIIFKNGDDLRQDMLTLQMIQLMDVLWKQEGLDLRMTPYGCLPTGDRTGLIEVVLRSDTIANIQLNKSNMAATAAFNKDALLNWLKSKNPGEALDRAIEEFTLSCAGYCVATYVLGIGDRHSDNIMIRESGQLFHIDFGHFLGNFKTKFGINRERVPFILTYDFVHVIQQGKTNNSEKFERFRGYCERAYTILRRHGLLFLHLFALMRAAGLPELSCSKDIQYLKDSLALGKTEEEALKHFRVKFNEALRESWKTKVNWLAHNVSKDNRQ
recombinant PI3K δ enzyme, sequence (P27986 whole entry partner, species assumed, canonical isoform): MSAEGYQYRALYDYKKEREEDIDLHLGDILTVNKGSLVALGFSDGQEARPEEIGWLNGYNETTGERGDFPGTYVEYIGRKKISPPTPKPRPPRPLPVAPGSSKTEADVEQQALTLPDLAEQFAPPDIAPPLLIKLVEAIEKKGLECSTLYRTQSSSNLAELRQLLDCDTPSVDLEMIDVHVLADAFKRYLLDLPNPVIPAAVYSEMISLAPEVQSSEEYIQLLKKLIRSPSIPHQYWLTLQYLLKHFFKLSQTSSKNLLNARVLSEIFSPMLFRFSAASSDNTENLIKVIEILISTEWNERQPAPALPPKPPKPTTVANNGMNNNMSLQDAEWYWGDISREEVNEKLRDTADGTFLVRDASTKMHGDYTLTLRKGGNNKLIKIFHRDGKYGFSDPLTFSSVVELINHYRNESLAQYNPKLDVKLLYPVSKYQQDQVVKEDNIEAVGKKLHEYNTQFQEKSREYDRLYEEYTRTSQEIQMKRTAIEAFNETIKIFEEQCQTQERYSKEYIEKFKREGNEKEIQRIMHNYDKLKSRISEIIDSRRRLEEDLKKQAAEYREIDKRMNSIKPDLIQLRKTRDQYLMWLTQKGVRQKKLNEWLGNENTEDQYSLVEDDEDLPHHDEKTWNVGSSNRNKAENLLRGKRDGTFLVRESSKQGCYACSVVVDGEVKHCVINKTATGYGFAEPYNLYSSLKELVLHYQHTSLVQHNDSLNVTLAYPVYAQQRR
PI3Kβ, sequence (P42338 whole entry, species assumed): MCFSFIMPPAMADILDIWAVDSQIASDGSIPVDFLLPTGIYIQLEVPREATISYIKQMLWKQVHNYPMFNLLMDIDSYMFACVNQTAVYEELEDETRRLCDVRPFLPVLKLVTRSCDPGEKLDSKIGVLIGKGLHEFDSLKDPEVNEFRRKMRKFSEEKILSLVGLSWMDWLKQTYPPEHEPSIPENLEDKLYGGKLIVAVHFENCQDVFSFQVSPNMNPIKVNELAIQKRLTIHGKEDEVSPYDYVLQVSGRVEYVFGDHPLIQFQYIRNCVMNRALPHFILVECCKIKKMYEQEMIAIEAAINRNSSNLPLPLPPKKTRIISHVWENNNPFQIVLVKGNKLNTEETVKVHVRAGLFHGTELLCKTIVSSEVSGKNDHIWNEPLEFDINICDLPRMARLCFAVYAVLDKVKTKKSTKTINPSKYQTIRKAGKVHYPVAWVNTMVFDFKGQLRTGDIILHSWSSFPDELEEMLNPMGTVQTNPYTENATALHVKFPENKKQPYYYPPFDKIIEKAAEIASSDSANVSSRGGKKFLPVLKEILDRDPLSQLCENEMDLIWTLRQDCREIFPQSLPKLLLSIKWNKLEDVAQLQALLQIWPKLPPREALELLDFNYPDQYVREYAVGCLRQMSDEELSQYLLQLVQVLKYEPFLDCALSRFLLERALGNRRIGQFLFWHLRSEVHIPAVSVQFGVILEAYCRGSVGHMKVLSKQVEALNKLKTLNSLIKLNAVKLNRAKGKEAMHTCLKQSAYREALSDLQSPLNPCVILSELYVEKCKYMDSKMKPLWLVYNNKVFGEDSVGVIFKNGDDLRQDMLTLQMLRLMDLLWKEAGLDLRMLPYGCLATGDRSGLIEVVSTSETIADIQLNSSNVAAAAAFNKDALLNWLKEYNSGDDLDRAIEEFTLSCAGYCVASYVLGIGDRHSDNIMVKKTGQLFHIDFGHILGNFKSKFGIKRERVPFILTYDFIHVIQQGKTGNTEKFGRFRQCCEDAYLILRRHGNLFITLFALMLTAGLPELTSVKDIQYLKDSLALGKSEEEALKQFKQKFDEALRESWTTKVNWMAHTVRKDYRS
PI3Kβ, sequence (P27986 whole entry partner, species assumed): as the sequence (P27986 whole entry partner, species assumed, canonical isoform) above
PI3Kα, sequence (P42336 whole entry, species assumed): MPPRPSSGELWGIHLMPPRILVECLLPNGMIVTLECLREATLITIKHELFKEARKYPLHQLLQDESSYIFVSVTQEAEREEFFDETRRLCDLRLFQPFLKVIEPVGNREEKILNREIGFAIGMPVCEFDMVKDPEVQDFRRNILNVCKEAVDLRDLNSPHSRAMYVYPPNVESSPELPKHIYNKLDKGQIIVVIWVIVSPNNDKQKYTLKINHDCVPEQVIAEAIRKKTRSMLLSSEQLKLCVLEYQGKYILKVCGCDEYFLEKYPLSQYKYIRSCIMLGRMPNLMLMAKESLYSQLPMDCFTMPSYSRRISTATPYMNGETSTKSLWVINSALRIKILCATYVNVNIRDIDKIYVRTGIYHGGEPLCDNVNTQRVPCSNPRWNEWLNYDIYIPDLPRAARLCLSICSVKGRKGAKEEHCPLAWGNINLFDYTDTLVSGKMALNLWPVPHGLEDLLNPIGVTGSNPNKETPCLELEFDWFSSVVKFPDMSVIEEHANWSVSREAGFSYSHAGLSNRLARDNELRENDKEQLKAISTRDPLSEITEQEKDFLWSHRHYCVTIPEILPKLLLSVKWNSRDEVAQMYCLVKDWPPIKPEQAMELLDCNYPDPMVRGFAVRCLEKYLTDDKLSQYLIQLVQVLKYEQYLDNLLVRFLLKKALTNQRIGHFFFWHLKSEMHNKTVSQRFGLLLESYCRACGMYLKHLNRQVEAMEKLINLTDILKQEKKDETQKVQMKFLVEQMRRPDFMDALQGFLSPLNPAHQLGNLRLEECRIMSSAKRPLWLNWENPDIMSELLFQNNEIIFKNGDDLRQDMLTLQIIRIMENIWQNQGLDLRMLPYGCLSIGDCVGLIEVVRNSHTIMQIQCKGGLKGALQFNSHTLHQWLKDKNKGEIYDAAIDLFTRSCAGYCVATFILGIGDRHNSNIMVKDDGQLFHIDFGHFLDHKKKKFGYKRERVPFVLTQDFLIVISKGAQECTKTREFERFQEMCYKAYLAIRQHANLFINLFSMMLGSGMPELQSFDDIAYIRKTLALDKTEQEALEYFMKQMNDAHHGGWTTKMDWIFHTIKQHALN
PI3Kα, sequence (P27986 whole entry partner, species assumed): as the sequence (P27986 whole entry partner, species assumed, canonical isoform) above

In the case of `Cc1nn(C)cc1-c1nc(N2CCOCC2)c2nc(C(=O)N3CCN(C(C)(C)C(N)=O)CC3)[nH]c2n1` [compound 8, 2-(4-{[2-(1,3-Dimethyl-1H-pyrazol-4-yl)-6-(morpholin-4-yl)-9H-purin-8-yl]carbonyl}piperazin-1-yl)-2-methylpropanamide], the IC50 is 6540 nM on PI3Kγ; 422 nM in assay [1]; > 1000 nM against PI3Kβ; 10 nM in assay [2]; 10 nM in assay [2] (enzyme 2.29 μg/mL, ATP 10 μM, PIP2 60 μM, 2 hours); 6480 nM at PI3Kα. On to `Cn1cc(-c2nc(N3CCOCC3)c3nc(C(=O)N4CCN(C(C)(C)C(N)=O)CC4)[nH]c3n2)cn1` [compound 10, 2-Methyl-2-(4-{[2-(1-methyl-1H-pyrazol-4-yl)-6-(morpholin-4-yl)-9H-purin-8-yl]carbonyl}piperazin-1-yl)propanamide], for which the concentration for half-maximal inhibition (IC50) in assay [1] amounted to 270 nM.

As to `C[C@@H]1CN(C2CCN(C(=O)c3nc4c(N5CCOCC5)nc(-c5cn[nH]c5)nc4[nH]3)CC2)C[C@H](C)O1` [compound 65, {4-[cis-2,6-Dimethylmorpholin-4-yl]piperidin-1-yl}[6-(morpholin-4-yl)-2-(1H-pyrazol-4-yl)-9H-purin-8-yl]methanone], the IC50 on PI3Kγ is 9770 nM; in assay [1], 79 nM; against PI3Kβ it was > 10000 nM; against PI3Kα, 986 nM. `Cc1nn(C)cc1-c1cc(N2CCOCC2)c2nc(C(=O)N3CCC(N4C[C@@H](C)O[C@@H](C)C4)CC3)[nH]c2n1` [compound 113, {4-[cis-2,6-Dimethylmorpholin-4-yl]piperidin-1-yl}[5-(1,3-dimethyl-1H-pyrazol-4-yl)-7-(morpholin-4-yl)-3H-imidazo[4,5-b]pyridin-2-yl]methanone]: the IC50 against PI3Kγ is > 1000 nM; in assay [1], 7 nM; at PI3Kβ, 1150 nM; at PI3Kα it was > 1000 nM.

Consider `Cc1nn(C)cc1-c1cc(N2CCOCC2)c2nc(C(=O)N3CCC(N4C[C@@H](C)O[C@@H](C)C4)CC3)n(C)c2n1` [compound 114, {4-[cis-2,6-Dimethylmorpholin-4-yl]piperidin-1-yl}[5-(1,3-dimethyl-1H-pyrazol-4-yl)-3-methyl-7-(morpholin-4-yl)-3H-imidazo[4,5-b]pyridin-2-yl]methanone], for which, in assay [2], the concentration for half-maximal inhibition (IC50) turned out to be 72 nM.

Turning to `Cn1cc(-c2cc(N3CCOCC3)c3nc(C(=O)NCCCN4CCOCC4)[nH]c3n2)cn1` [compound 115, 5-(1-Methyl-1H-pyrazol-4-yl)-7-(morpholin-4-yl)-N-[3-(morpholin-4-yl)propyl]-3H-imidazo[4,5-b]pyridine-2-carboxamide], the concentration for half-maximal inhibition (IC50) in assay [2] was 16 nM. On to `Cn1cc(-c2cc(N3CCOCC3)c3nc(C(=O)NCCCN4CCCC4=O)[nH]c3n2)cn1` [compound 116, 5-(1-Methyl-1H-pyrazol-4-yl)-7-(morpholin-4-yl)-N-[3-(2-oxopyrrolidin-1-yl)propyl]-3H-imidazo[4,5-b]pyridine-2-carboxamide], for which the concentration for half-maximal inhibition (IC50) in assay [1] stood at 72 nM. Consider `Cn1cc(-c2cc(N3CCOCC3)c3nc(C(=O)N4CCC(C(C)(C)O)CC4)[nH]c3n2)cn1` [compound 117, [4-(2-Hydroxypropan-2-yl)piperidin-1-yl][5-(1-methyl-1H-pyrazol-4-yl)-7-(morpholin-4-yl)-3H-imidazo[4,5-b]pyridin-2-yl]methanone], for which the half-inhibitory concentration (IC50) in assay [2] worked out at 122 nM. With `C[C@@H]1CN(C2CCN(C(=O)c3nc4c(N5CCOCC5)cc(-c5cn[nH]c5)nc4[nH]3)CC2)C[C@H](C)O1` [compound 118, {4-[cis-2,6-Dimethylmorpholin-4-yl]piperidin-1-yl}[7-(morpholin-4-yl)-5-(1H-pyrazol-4-yl)-3H-imidazo[4,5-b]pyridin-2-yl]methanone], the concentration for half-maximal inhibition (IC50) in assay [2] stood at 50 nM. Turning to `Cn1cc(-c2cc(N3CCOCC3)c3nc(C(=O)N4CC(N5CCOCC5)C4)[nH]c3n2)cn1` [compound 120, [5-(1-Methyl-1H-pyrazol-4-yl)-7-(morpholin-4-yl)-3H-imidazo[4,5-b]pyridin-2-yl][3-(morpholin-4-yl)azetidin-1-yl]methanone], the IC50 in assay [2] was determined as 10 nM. On to `Cn1cc(-c2nc(N3CCOCC3)c3nc(C(=O)N4CCC5(CC4)CNC(=O)C5)[nH]c3n2)cn1` [compound 122, 8-{[2-(1-Methyl-1H-pyrazol-4-yl)-6-(morpholin-4-yl)-9H-purin-8-yl]carbonyl}-2,8-diazaspiro[4.5]decan-3-one], for which the IC50 in assay [2] amounted to 20 nM. Regarding `O=C(c1nc2c(N3CCOCC3)c(F)c(-c3c[nH]nc3C(F)(F)F)nc2[nH]1)N1CCC(N2CCOCC2)CC1` [compound 123, {6-Fluoro-7-(morpholin-4-yl)-5-[3-(trifluoromethyl)-1H-pyrazol-4-yl]-3H-imidazo[4,5-b]pyridin-2-yl}[4-(morpholin-4-yl)piperidin-1-yl]methanone], in assay [2], the IC50 is 4 nM. Same read-out and setting: the figure for `Cn1cc(-c2nc3[nH]c(C(=O)NCCCN4CCOCC4)nc3c(N3CCOCC3)c2F)cn1` [compound 124, 6-Fluoro-5-(1-methyl-1H-pyrazol-4-yl)-7-(morpholin-4-yl)-N-[3-(morpholin-4-yl)propyl]-3H-imidazo[4,5-b]pyridine-2-carboxamide] is 17 nM. On to `O=C(c1nc2c(N3CCOCC3)c(F)c(-c3cn[nH]c3)nc2[nH]1)N1CCC(N2CCOCC2)CC1` [compound 125, [6-Fluoro-7-(morpholin-4-yl)-5-(1H-pyrazol-4-yl)-3H-imidazo[4,5-b]pyridin-2-yl][4-(morpholin-4-yl)piperidin-1-yl]methanone], for which the concentration for half-maximal inhibition (IC50) in assay [2] stood at 43 nM. Regarding `Cn1cc(-c2nc3[nH]c(C(=O)N4CC(N5CCOCC5)C4)nc3c(N3CCOCC3)c2F)cn1` [compound 126, [6-Fluoro-5-(1-methyl-1H-pyrazol-4-yl)-7-(morpholin-4-yl)-3H-imidazo[4,5-b]pyridin-2-yl][3-(morpholin-4-yl)azetidin-1-yl]methanone], in assay [2], the half-maximal inhibitory concentration (IC50) amounted to 25 nM. The same measure, in the same setting: the figure for `C[C@@H]1CN(C2CN(C(=O)c3nc4c(N5CCOCC5)c(F)c(-c5cnn(C)c5)nc4[nH]3)C2)C[C@H](C)O1` [compound 127, {3-[(2R,6S)-2,6-dimethylmorpholin-4-yl]azetidin-1-yl}[6-fluoro-5-(1-methyl-1H-pyrazol-4-yl)-7-(morpholin-4-yl)-3H-imidazo[4,5-b]pyridin-2-yl]methanone] is 36 nM; for `CN(C(=O)c1nc2c(N3CCOCC3)nc(-c3cnn(C)c3)nc2[nH]1)C1CCN(C2COC2)CC1` [compound 132, N-Methyl-2-(1-methyl-1H-pyrazol-4-yl)-6-(morpholin-4-yl)-N-[1-(oxetan-3-yl)piperidin-4-yl]-9H-purine-8-carboxamide] it is 240 nM. On the same count and under the same terms, as for `O=C(c1nc2c(N3CCOCC3)cc(-c3cn[nH]c3)nc2[nH]1)N1CCC(N2CCOCC2)CC1` [compound 133, [4-(Morpholin-4-yl)piperidin-1-yl][7-(morpholin-4-yl)-5-(1H-pyrazol-4-yl)-3H-imidazo[4,5-b]pyridin-2-yl]methanone], the figure is 19 nM; as for `O=C(c1nc2c(N3CCOCC3)cc(-c3c[nH]nc3C(F)(F)F)nc2[nH]1)N1CCC(N2CCOCC2)CC1` [compound 134, [4-(Morpholin-4-yl)piperidin-1-yl]{7-(morpholin-4-yl)-5-[3-(trifluoromethyl)-1H-pyrazol-4-yl]-3H-imidazo[4,5-b]pyridin-2-yl}methanone], 3 nM.

Regarding `Cn1cc(-c2cc(N3CCOCC3)c3nc(C(=O)N4CCN(C5CCOCC5)CC4)[nH]c3n2)cn1` [compound 135, [5-(1-Methyl-1H-pyrazol-4-yl)-7-(morpholin-4-yl)-3H-imidazo[4,5-b]pyridin-2-yl][4-(tetrahydro-2H-pyran-4-yl)piperazin-1-yl]methanone], in assay [2], the concentration for half-maximal inhibition (IC50) amounted to 19 nM.
